Entries after “also recorded” stand apart in the source; their conditions may differ. Marks after values point to notes of the source that are not given here.
Assays:
[1] = system: hypercholesterolemic patients; assay: Phase 2b randomized double-blind trial: percent change from baseline to week 12 in lipids and CRP; type: in vivo, human; conditions: for LDL-C reduction: baseline to week 12; for Apolipoprotein A-I, percent change from baseline to week 12 / Apolipoprotein B, percent change from baseline to week 12 / HDL particle number, percent change from baseline to week 12 / HDL-C, percent change from baseline to week 12 / LDL particle number, percent change from baseline to week 12 / LDL-C, percent change from baseline to week 12 / Non-HDL-C, percent change from baseline to week 12 / Total cholesterol, percent change from baseline to week 12: LS mean ± SE; for CRP, percent change from baseline to week 12 / Triglycerides, percent change from baseline to week 12 / VLDL particle number, percent change from baseline to week 12: median (interquartile range)
Method: Brief Description of Clinical Study and Results.
Study Objectives. The primary objective was to assess the LDL-C-lowering effect of ETC-1002 monotherapy (120 mg or 180 mg daily) versus EZE monotherapy in hypercholesterolemic patients with or without statin intolerance. Secondary objectives were to characterize the dose response of ETC-1002, evaluate the impact of treatment on other lipid and cardiometabolic biomarkers, compare the LDL-C-lowering effect of ETC-1002 plus EZE combination therapy with EZE monotherapy, and characterize the safety and tolerability of the treatment regimens, including muscle-related adverse events (AEs).
Overall Study Design and Plan. […] 16, 2013 to Aug.
LDL-C was calculated using the Friedewald equation.
Efficacy Endpoints. The primary endpoint was the percent change from baseline to week 12 in calculated LDL-C in patients treated with ETC-1002 monotherapy versus those treated with EZE alone. Secondary endpoints included the dose-response relationship between ETC-1002 and the percent change in LDL-C from baseline to week 12, the percent change in LDL-C from baseline to week 12 in patients treated with ETC-1002 plus EZE versus those treated with EZE alone, and the percent change from baseline to week 12 for all treatment groups in LDL particle number, apolipoprotein B, total cholesterol, non-high-density lipoprotein cholesterol (non-HDL-C), HDL-C, HDL particle number, apolipoprotein A-I, triglycerides, very-low-density lipoprotein (VLDL) particle number, and high-sensitivity C-reactive protein (CRP). Lipoprotein particle number was measured using nuclear magnetic resonance […].
Statistical Plan and Analyses. The study was designed to include 322 patients: 92 patients in each monotherapy group and 23 patients in each combination therapy group. Sample size calculations were performed using nQuery Advisor® version 7.0 (Statistical Solutions, Cork, Ireland). The sample size of 92 patients per monotherapy group was expected to provide 90% power to detect a difference of 10% in the absolute percent change from baseline to week 12 in LDL-C between either ETC-1002 treatment group and the EZE monotherapy group. This calculation was based on a 2-sided t test at the 5% level of significance and assumed a common standard deviation of 15% in the statin-tolerant patients and 22% in the statin-intolerant patients with a dropout rate of 15%.
An analysis of covariance was used to compare each ETC-1002 treatment group with EZE monotherapy for each of the efficacy endpoints. The primary model included the effects of treatment and statin intolerance and the baseline value as a covariate. Baseline was defined as the mean of values from weeks −1 and 0 for LDL-C, non-HDL-C, total cholesterol, HDL-C, and triglycerides. For all other lipid and biomarker measures, baseline was defined as the last value before the first dose of study drug. Missing values at week 12 were imputed using the last-observation-carried-forward procedure. When LDL-C could not be calculated (i.e., triglycerides >400 mg/dL), beta-quantification measurements were used to determine LDL-C values. Least-squares (LS) means and standard errors were obtained for each treatment group; differences in LS means and p-values were obtained for the treatment comparisons. Graphical methods (e.g., normal probability plot and histogram of residuals, plot of residuals vs. predicted values) or analytical methods (e.g., Shapiro-Wilk test), or both, were used to assess the model assumptions. Because of departures from normality observed in the parameters of triglycerides, CRP, and VLDL particle number, nonparametric analyses were performed for these measures, with p-values obtained from the Wilcoxon rank-sum test and median values presented.
Percent changes from baseline in LDL-C also were summarized by statin-tolerance subgroup. […]

[2] = system: hypercholesterolemic patients; assay: Phase 2b trial: treatment-emergent adverse events and laboratory safety
From the text: Study Population. Medically stable, hypercholesterolemic men and women aged 18 through 80 years with a body mass index between 18 to 45 kg/m^2 were included in the study. […] The study population included both statin-tolerant and statin-intolerant participants. Statin intolerance was defined as the inability to tolerate ≥2 statins because of muscle-related symptoms such as pain, weakness, or cramping that began or increased during statin therapy and resolved on statin discontinuation. At least 1 statin must have been administered at the lowest approved daily dose, defined as rosuvastatin 5 mg, atorvastatin 10 mg, simvastatin 10 mg, lovastatin 20 mg, pravastatin 40 mg, fluvastatin 40 mg, or pitavastatin 2 mg. Treatment with less than the lowest approved daily dose of a statin (i.e., skipping days) was considered equivalent to not tolerating 1 statin at the lowest approved daily dose.
Overall Study Design and Plan. […] Patients underwent a 5-week washout of all lipid-regulating drugs and dietary supplements and abstained from these drugs and supplements throughout the study. Patients also underwent a 5-week patient-only-blinded placebo run-in during the screening period (week −5 to week 0). This single-blind placebo run-in period was used to eliminate patients with muscle-related AEs during placebo treatment. Patients reporting new or worsening, unexplained muscle-related AEs during this run-in period were excluded from the study.
Patients were stratified (1:1) by history of statin intolerance and randomized at week 0 in a 4:4:4:1:1 ratio to once-daily treatment with capsules containing ETC-1002 120 mg, ETC-1002 180 mg, EZE, ETC-1002 120 mg plus EZE, or ETC-1002 180 mg plus EZE. […] A contract laboratory (Medpace Inc., Cincinnati, Ohio), performed all clinical laboratory tests. LDL-C was calculated using the Friedewald equation. Phlebotomy was performed after a minimum 12-hour fast (water was allowed) and only if the patient took their dose of study drug the previous day.
Safety Endpoints. The safety of ETC-1002 was assessed using treatment-emergent AEs; hematology, serum chemistry, and urinalysis laboratory values; physical examination findings; vital sign measurements; electrocardiogram (ECG) readings; weight; and ankle and waist circumference measurements. AEs were coded using the Medical Dictionary for Regulatory Activities version 16.0 and evaluated by the investigator for severity and relation to study drug. Muscle-related AEs were defined as those from the system organ class of musculoskeletal and connective tissue disorders, except for those that were not obviously muscle related. Terms included in the muscle-related AE analysis were selected from this system organ class after database lock and before unblinding.
Safety analyses were performed on the safety population, which included randomized patients who received at least 1 dose of study drug. Baseline patient characteristics were summarized for the safety population by treatment group and statin-tolerance subgroup.
Muscle-related AEs also were summarized by statin-tolerance subgroup.

[3] = system: high cardiovascular risk patients; assay: Phase 3 clinical trial study: LDL-C and hsCRP lowering; type: in vivo, human; conditions: ETC-1002 monotherapy
[4] = system: high cardiovascular risk patients; assay: Phase 3 clinical trial study: safety and tolerability; conditions: human, in vivo
From the text: In a phase 3 clinical trial study consisting of 382 high cardiovascular risk patients who are receiving maximally tolerated statin therapy, treatment of ETC-1002 in combination with Ezetimibe provided clinically and statistically significant lowering of both LDL-C and hsCRP levels by about 35% and about 34% respectively. For patients who are on maximally tolerated statins and received the combination therapy of ETC-1002 and Ezetimibe, no increases in muscle-related adverse effects and no elevations in liver function tests were observed as compared to patients receiving the placebo treatment.

[5] = ETC-1002 120 mg daily, mITT n = 97
[6] = ETC-1002 180 mg daily, mITT n = 99
[7] = ETC-1002 120 mg daily, safety population n = 99
[8] = ETC-1002 180 mg daily, safety population n = 100
[9] = statin-intolerant patients, ETC-1002 120 mg, n = 51
[10] = statin-intolerant patients, ETC-1002 180 mg, n = 51
[11] = statin-tolerant patients, ETC-1002 120 mg, n = 48
[12] = statin-tolerant patients, ETC-1002 180 mg, n = 49

In the case of `CC(C)(CCCCCC(O)CCCCCC(C)(C)C(=O)O)C(=O)O` [ETC-1002, 8-hydroxy-2,2,14,14 tetramethylpentadecanedioic acid], the “CRP decrease from baseline to week 12 endpoint, median” value ([1]; ETC-1002 120 mg) was 30%, the LDL-C reduction ([1]; ETC-1002 120 mg alone) was 27% and the “Apolipoprotein A-I, percent change from baseline to week 12” value [1, 5] was −0.2 ± 1.1%. The “Apolipoprotein B, percent change from baseline to week 12” value [1, 5] was −19.3 ± 1.3 %, the “HDL particle number, percent change from baseline to week 12” value [1, 5] was 5.0 ± 1.3% and the “HDL-C, percent change from baseline to week 12” value [1, 5] was −5.8 ± 1.4 %. The “LDL particle number, percent change from baseline to week 12” value [1, 5] was −21.8 ± 1.7 %, the “LDL-C, percent change from baseline to week 12” value [1, 5] was −27.5 ± 1.3 % and the “Non-HDL-C, percent change from baseline to week 12” value [1, 5] was −23.2 ± 1.2 %. The “Total cholesterol, percent change from baseline to week 12” value [1, 5] was −19.3 ± 0.9 %, the “CRP, percent change from baseline to week 12” value [1, 5] was −30.1 (55.4)† % and the “Triglycerides, percent change from baseline to week 12” value [1, 5] was 0.0 (41.6) %. For the same compound, the “VLDL particle number, percent change from baseline to week 12” value [1, 5] was −2.7 (68.5) %, the “CRP decrease from baseline to week 12 endpoint, median” value ([1]; ETC-1002 180 mg) was 40% and the LDL-C reduction ([1]; ETC-1002 180 mg alone) was 30%. For the same compound, the “Apolipoprotein A-I, percent change from baseline to week 12” value [1, 6] was 0.1 ± 1.2%, the “Apolipoprotein B, percent change from baseline to week 12” value [1, 6] was −21.3 ± 1.3 % and the “HDL particle number, percent change from baseline to week 12” value [1, 6] was 6.2 ± 1.4%. The “HDL-C, percent change from baseline to week 12” value [1, 6] was −4.8 ± 1.4 %, the “LDL particle number, percent change from baseline to week 12” value [1, 6] was −24.6 ± 1.8 % and the “LDL-C, percent change from baseline to week 12” value [1, 6] was −30.1 ± 1.3 %. For the same compound, the “Non-HDL-C, percent change from baseline to week 12” value [1, 6] was −25.3 ± 1.1 %, the “Total cholesterol, percent change from baseline to week 12” value [1, 6] was −20.7 ± 0.9 % and the “CRP, percent change from baseline to week 12” value [1, 6] was −40.2 (53.3)† %. The “Triglycerides, percent change from baseline to week 12” value [1, 6] was −2.7 (46.2) %, the “VLDL particle number, percent change from baseline to week 12” value [1, 6] was 15.3 (80.5) % and the “LDL-C reduction, ETC-1002 alone (maximum)” value ([1]; ETC-1002 monotherapy 120 mg or 180 mg) was “up to 30%”. The “ALT or AST, or both, increased >3 times the upper limit of normal at any measurement” value ([2]; ETC-1002 120 mg) was 1 patient, the “Myalgia, patients, entire study population” value ([2]; ETC-1002 120 mg) was 3% and the “Serious AE reported (event)” value ([2]; ETC-1002 120 mg) was “hemothorax; also recorded: sudden death”. For the same compound, the “ALT increased, patients” value [2, 7] was 0 n (%), the “AST increased, patients” value [2, 7] was 0 n (%) and the “Any AE(s), patients” value [2, 7] was 50 (51%) n (%). For the same compound, the “Arthralgia, patients” value [2, 7] was 4 (4%) n (%), the “Back pain, patients” value [2, 7] was 1 (1%) n (%) and the “Blood CK increased, patients” value [2, 7] was 1 (1%) n (%). The “Constipation, patients” value [2, 7] was 3 (3%) n (%), the “Discontinuation due to AE(s), patients” value [2, 7] was 3 (3%) n (%) and the “Headache, patients” value [2, 7] was 3 (3%) n (%). The “Myalgia, patients” value [2, 7] was 3 (3%) n (%), the “Nasopharyngitis, patients” value [2, 7] was 3 (3%) n (%) and the “Serious AE(s), patients” value [2, 7] was 2 (2%) n (%). The “Study drug-related AE(s), patients” value [2, 7] was 13(13%) n (%), the “Upper respiratory tract infection, patients” value [2, 7] was 6 (6%) n (%) and the “Urinary tract infection, patients” value [2, 7] was 0 n (%). The “ALT or AST, or both, increased >3 times the upper limit of normal at any measurement” value ([2]; ETC-1002 180 mg) was 2 patients, the “Myalgia, patients, entire study population” value ([2]; ETC-1002 180 mg) was 1% and the “Serious AE reported (event)” value ([2]; ETC-1002 180 mg) was “pancreatitis relapse”. The “ALT increased, patients” value [2, 8] was 0 n (%), the “AST increased, patients” value [2, 8] was 0 n (%) and the “Any AE(s), patients” value [2, 8] was 55 (55%) n (%). For the same compound, the “Arthralgia, patients” value [2, 8] was 1 (1%) n (%), the “Back pain, patients” value [2, 8] was 1 (1%) n (%) and the “Blood CK increased, patients” value [2, 8] was 4 (4%) n (%). For the same compound, the “Constipation, patients” value [2, 8] was 1 (1%) n (%), the “Discontinuation due to AE(s), patients” value [2, 8] was 6 (6%) n (%) and the “Headache, patients” value [2, 8] was 2 (2%) n (%). For the same compound, the “Myalgia, patients” value [2, 8] was 1 (1%) n (%), the “Nasopharyngitis, patients” value [2, 8] was 5 (5%) n (%) and the “Serious AE(s), patients” value [2, 8] was 1 (1%) n (%). For the same compound, the “Study drug-related AE(s), patients” value [2, 8] was 18 (18%) n (%), the “Upper respiratory tract infection, patients” value [2, 8] was 6 (6%) n (%) and the “Urinary tract infection, patients” value [2, 8] was 4 (4%) n (%). For the same compound, the “Any muscle-related AE, patients” value [2, 9] was 7 (14%) n (%), the “Muscle spasms, patients” value [2, 9] was 3 (6%) n (%) and the “Muscle-related AE leading to discontinuation, patients” value (from here on “Muscle-related AE leading”) [2, 9] was 1 (2%) n (%). For the same compound, the “Muscular weakness, patients” value [2, 9] was 2 (4%) n (%), the “Musculoskeletal chest pain, patients” value [2, 9] was 0 n (%) and the “Musculoskeletal stiffness, patients” value [2, 9] was 0 n (%). For the same compound, the “Myalgia, patients” value [2, 9] was 2 (4%) n (%), the “Pain in extremity, patients” value [2, 9] was 1 (2%) n (%) and the “Sensation of heaviness, patients” value [2, 9] was 0 n (%). The “Any muscle-related AE, patients” value [2, 10] was 6 (12%) n (%), the “Muscle spasms, patients” value [2, 10] was 2 (4%) n (%) and the “Muscle-related AE leading” value [2, 10] was 2 (4%) n (%). For the same compound, the “Muscular weakness, patients” value [2, 10] was 1 (2%) n (%), the “Musculoskeletal chest pain, patients” value [2, 10] was 1 (2%) n (%) and the “Musculoskeletal stiffness, patients” value [2, 10] was 0 n (%). The “Myalgia, patients” value [2, 10] was 1 (2%) n (%), the “Pain in extremity, patients” value [2, 10] was 1 (2%) n (%) and the “Sensation of heaviness, patients” value [2, 10] was 0 n (%). The “Any muscle-related AE, patients” value [2, 11] was 1 (2%) n (%), the “Muscle spasms, patients” value [2, 11] was 0 n (%) and the “Muscle-related AE leading” value [2, 11] was 0 n (%). The “Musculoskeletal pain, patients” value [2, 11] was 0 n (%), the “Myalgia, patients” value [2, 11] was 1 (2%) n (%) and the “Any muscle-related AE, patients” value [2, 12] was 0 n (%). For the same compound, the “Muscle spasms, patients” value [2, 12] was 0 n (%), the “Muscle-related AE leading” value [2, 12] was 0 n (%) and the “Musculoskeletal pain, patients” value [2, 12] was 0 n (%). The “Myalgia, patients” value [2, 12] was 0 n (%), the LDL-C lowering ([3]; patients not receiving background statin therapy) was ≥ 30% and the LDL-C lowering ([3]; patients receiving background statin therapy) was ≥ 20%. The hsCRP lowering ([3]; patients receiving maximally tolerated statin therapy) was 22-40%, the “Increases in muscle-related adverse effects or serious adverse effects” value [4] was “without any increases” and the Tolerability [4] was “well tolerated and safe”.

From patent publication US20210322375A1, “COMBINATION DRUG FORMULATIONS FOR TREATING PATIENTS WITH CARDIOVASCULAR DISEASE AND ASSOCIATED CONDITIONS” (Esperion Therapeutics, Inc., priority 2018, published 2021)
